This is an account of results in US11401286B2 (Tetra Discovery Partners, LLC, priority 2012, dated 2022).

Where a name gives a salt, the structure may show the parent alone. Read-outs that look alike come from different tables or passages of the source.

What is called IC50 is the concentration that gives 50% inhibition.

The test concerns the target PDE4D7 (Homo sapiens (Human), UniProt Q08499). The following applies: read-out: PDE4D7 IC50.

Sequence of PDE4D7 (Q08499 other isoform, or with tags, fused parts or gaps): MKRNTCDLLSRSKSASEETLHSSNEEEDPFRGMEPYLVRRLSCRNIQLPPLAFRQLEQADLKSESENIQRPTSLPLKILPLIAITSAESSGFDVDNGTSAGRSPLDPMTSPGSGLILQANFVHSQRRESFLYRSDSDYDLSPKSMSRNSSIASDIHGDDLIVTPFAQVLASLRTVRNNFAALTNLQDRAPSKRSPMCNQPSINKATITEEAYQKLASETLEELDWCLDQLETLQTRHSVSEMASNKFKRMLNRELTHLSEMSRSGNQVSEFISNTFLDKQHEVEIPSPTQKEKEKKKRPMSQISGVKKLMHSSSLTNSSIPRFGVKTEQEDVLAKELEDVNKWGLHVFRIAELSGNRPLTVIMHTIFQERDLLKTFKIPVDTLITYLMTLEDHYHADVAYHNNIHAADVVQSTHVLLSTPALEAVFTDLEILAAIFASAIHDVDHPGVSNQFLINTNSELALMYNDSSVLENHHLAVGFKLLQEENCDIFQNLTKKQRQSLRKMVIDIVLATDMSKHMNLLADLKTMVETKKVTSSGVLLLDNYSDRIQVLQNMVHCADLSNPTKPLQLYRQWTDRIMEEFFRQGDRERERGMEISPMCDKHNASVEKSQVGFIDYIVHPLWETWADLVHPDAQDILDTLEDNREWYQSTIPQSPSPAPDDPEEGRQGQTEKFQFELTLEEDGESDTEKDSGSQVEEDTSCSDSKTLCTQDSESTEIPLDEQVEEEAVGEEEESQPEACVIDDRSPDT
Protocol: Here, a kinetic assay of cAMP hydrolysis by purified PDE4 was used, in which PDE4 activity was measured by coupling the formation of the PDE4 reaction product, 5′-adenosine monophosphate, to the oxidation of reduced nicotinamide adenine dinucleotide (NADH) by the use of three coupling enzymes (myokinase, pyruvate kinase and lactate dehydrogenase), which allows fluorescent determination of reaction rates. Assays are performed in 96-well plates in a total volume of 200 μl/well. Compounds are dissolved in dimethylsulfoxide (DMSO) and added to plates in a volume of 10 μl followed by addition of 165 μl of assay mix. Plates are pre-incubated at 25° C. for 15 min and the reactions are initiated by the addition of 25 μl of cAMP followed by thorough mixing. […] Initial rates (slopes) are determined from linear portions of the progress curves. Final concentrations of assay components are as follows: 50 mM Tris, pH 8, 10 mM MgCl2, 50 mM KCl, 2% DMSO, 5 mM tris(2-carboxyethyl)phosphine (TCEP), 0.4 mM phosphenolpyruvate (PEP), 0.01 mM NADH, 0.04 mM adenosine triphosphate (ATP), 0.004 mM cAMP, 7.5 units myokinase from yeast, 1.6 units pyruvate kinase, 2 units lactate dehydrogenase, and either 0.5 nM human PDE4D7 or 10 nM human PDE4B1. All data are percent normalized relative to controls and are presented as percent inhibition. […] Human PDE4D7 contained a mutation of serine 54 to aspartic acid to mimic activation by cAMP-dependent protein kinase A (PKA).
PDE4D7*=PDE4D7 containing a UCR1 activating mutation S54D.

`NC(=O)Cc1ccc(Nc2cc(-c3ccc(Cl)cc3)nc3c2CCC3)cc1` [Example 148, 2-(4-((2-(4-Chlorophenyl)-6,7-dihydro-5H-cyclopenta[b]pyridin-4-yl)amino)phenyl)acetamide hydrochloride]: the IC50 (PDE4D7 without asterisk) is more than 1000 nM. Same read-out and setting: to `Clc1cccc(-c2nc3c(c(Nc4ccccc4)n2)CCC3)c1` [Example 166, 2-(3-Chlorophenyl)-N-phenyl-6,7-dihydro-5H-cyclopenta[d]pyrimidin-4-amine] belongs more than 1000 nM; to `CCOC(=O)Cc1ccc(Nc2cc(CC)nc(-c3cccc(Cl)c3)n2)cc1` [Example 185, Ethyl 2-(4-((2-(3-chlorophenyl)-6-ethylpyrimidin-4-yl)amino)phenyl)acetate], more than 1000 nM.

With `NC(=O)Cc1ccc(Cc2cc(OC3CCCC3)nc3c2CCC3)cc1` [Example 131, 2-(4-((2-(Cyclopentyloxy)-6,7-dihydro-5H-cyclopenta[b]pyridin-4-yl)methyl)phenyl)acetamide hydrochloride], for the setting “PDE4D7 without asterisk”, the IC50 was more than 1000 nM. Still for that read-out and setting: the same measure for `CCc1cc(Nc2ccc(Cn3cc(Cl)cn3)cc2)nc(-c2cccc(Cl)c2)n1` [Example 188, N-(4-((4-Chloro-1H-pyrazol-1-yl)methyl)phenyl)-2-(3-chlorophenyl)-6-ethylpyrimidin-4-amine]: more than 1000 nM.

With `COC(=O)Cc1ccc(Nc2cc(-c3cccc(Cl)c3)nc3c2CCC3)cn1` [Example 89, Methyl 2-(5-((2-(3-chlorophenyl)-6,7-dihydro-5H-cyclopenta[b]pyridin-4-yl)amino)pyridin-2-yl)acetate hydrochloride], the IC50 is more than 1000 nM.

As to `CN(C)C(=O)Cc1ccc(Nc2cc(-c3cccc(Cl)c3)nc3c2CCC3)cc1` [Example 121, 2-(4-((2-(3-chlorophenyl)-6,7-dihydro-5H-cyclopenta[b]pyridin-4-yl)amino)phenyl)-N,N-dimethylacetamide hydrochloride], the IC50 (PDE4D7 without asterisk) is less than 1000 nM. As to `CCc1cc(Nc2ccc(C(C)(C)CO)cc2)nc(-c2cccc(Cl)c2)n1` [Example 184, 2-(4-((2-(3-Chlorophenyl)-6-ethylpyrimidin-4-yl)amino)phenyl)-2-methylpropan-1-ol], the IC50 (PDE4D7 without asterisk) was more than 1000 nM. Same read-out and setting: to `NC(=O)CCc1ccc(Nc2nc(-c3cccc(Cl)c3)nc3c2CCC3)cc1` [Example 167, 3-(4-((2-(3-Chlorophenyl)-6,7-dihydro-5H-cyclopenta[d]pyrimidin-4-yl)amino)phenyl)propanamide] belongs more than 1000 nM; to `CCc1nc(Nc2ccc(C(=O)O)cc2)nc(-c2cccc(Cl)c2)n1` [Example 40, 4-((4-(3-chlorophenyl)-6-ethyl-1,3,5-triazin-2-yl)amino)benzoic acid], less than 1000 nM; to `Cc1nc(Nc2ccc(F)cc2)nc(-c2ccc(Cl)s2)n1` [Example 23, 4-(5-chlorothiophen-2-yl)-N-(4-fluorophenyl)-6-methyl-1,3,5-triazin-2-amine], more than 1000 nM.

Consider `CCc1c(C)nc(-c2ccc(Cl)s2)nc1Nc1ccc(Cn2cccn2)cc1` [Example 299, 2-(5-Chloro-2-thienyl)-5-ethyl-6-methyl-N-[4-(pyrazol-1-ylmethyl)phenyl]pyrimidin-4-amine], for which the IC50 (PDE4D7 without asterisk) was more than 1000 nM.

Turning to `NC(=O)Cc1ccc(Nc2cc(-c3ncco3)nc3c2CCC3)cc1` [Example 242, 2-(4-((2-(Oxazol-2-yl)-6,7-dihydro-5H-cyclopenta[b]pyridin-4-yl)amino)phenyl)acetamide], the IC50 (PDE4D7 without asterisk) is more than 1000 nM.

In the case of `NC(=O)Cc1ccc(Nc2cc(-c3cccc(Cl)c3)[n+]([O-])c3c2CCC3)cc1` [Example 103, 4-((4-(2-Amino-2-oxoethyl)phenyl)amino)-2-(3-chlorophenyl)-6,7-dihydro-5H-cyclopenta[b]pyridine 1-oxide], the IC50 (PDE4D7 without asterisk) was more than 1000 nM. With `NC(=O)Cc1ccc(Nc2cc(S(=O)(=O)C3CCCC3)nc3c2CCC3)cc1` [Example 259, 2-(4-((2-(Cyclopentylsulfonyl)-6,7-dihydro-5H-cyclopenta[b]pyridin-4-yl)amino)phenyl)acetamide], the IC50 (PDE4D7 without asterisk) is more than 1000 nM.

Turning to `N#CCc1ccc(Nc2nc(-c3cccc(Cl)c3)nc3c2CCC3)cc1` [Example 19, 2-[4-[[2-(3-chlorophenyl)-6,7-dihydro-5H-cyclopenta[d]pyrimidin-4-yl]amino]phenyl]acetonitrile], the IC50 (PDE4D7 without asterisk) was more than 1000 nM. For the compound `OCC(O)c1ccc(Nc2nc(-c3cccc(Cl)c3)nc3c2CCC3)cc1` (stereo not shown) [Example 175, 1-(4-((2-(3-Chlorophenyl)-6,7-dihydro-5H-cyclopenta[d]pyrimidin-4-yl)amino)phenyl)ethane-1,2-diol], the concentration for half-maximal inhibition (IC50) (PDE4D7 without asterisk) was more than 1000 nM. Still for that read-out and setting: to `OB1OCc2cc(Nc3nc(-c4cccc(Cl)c4)nc4c3CCC4)ccc21` [Example 294, 2-(3-Chlorophenyl)-N-(1-hydroxy-3H-2,1-benzoxaborol-5-yl)-6,7-dihydro-5H-cyclopenta[d]pyrimidin-4-amine] belongs more than 1000 nM; to `O=S1(=O)CCc2nc(-c3cccc(Cl)c3)nc(Nc3ccc(CCO)cc3)c21` [Example 281, 2-(3-Chlorophenyl)-4-((4-(2-hydroxyethyl)phenyl)amino)-6,7-dihydrothieno[3,2-d]pyrimidine 5,5-dioxide], less than 1000 nM; to `CCCNC(=O)Cc1ccc(Nc2nc(-c3ccccc3)nc3c2S(=O)(=O)CCC3)cc1` [Example 270, 2-(4-((5,5-dioxido-2-phenyl-7,8-dihydro-6H-thiopyrano[3,2-d]pyrimidin-4-yl)amino)phenyl)-N-propylacetamide], less than 1000 nM. On the same count and under the same terms, to `OCCCc1ccc(Nc2cc(-c3cccc(Cl)c3)nc3c2CCC3)cc1` [Example 85, 3-(4-((2-(3-Chlorophenyl)-6,7-dihydro-5H-cyclopenta[b]pyridin-4-yl)amino)phenyl)propan-1-ol hydrochloride] belongs less than 1000 nM; to `NC(=O)Cc1ccc(Nc2cc(SC3CCCC3)nc3c2CCC3)cc1` [Example 258, 2-(4-((2-(Cyclopentylthio)-6,7-dihydro-5H-cyclopenta[b]pyridin-4-yl)amino)phenyl)acetamide], more than 1000 nM; to `O=C(O)Cc1ccc(Nc2nc(-c3cccc(Cl)c3)nc(C3CC3)n2)cc1` [Example 36, 2-(4-((4-(3-chlorophenyl)-6-cyclopropyl-1,3,5-triazin-2-yl)amino)phenyl)acetic acid], more than 1000 nM. With `NC(=O)Cc1ccc(Cc2nc(-c3cccc(Cl)c3)nc3c2CCC3)cc1` [Example 68, 2-(4-((2-(3-chlorophenyl)-6,7-dihydro-5H-cyclopenta[d]pyrimidin-4-yl)methyl)phenyl)acetamide], under “PDE4D7 without asterisk”, the IC50 was more than 1000 nM.

With `CCOC(=O)Cc1ccc(Nc2cc(C3CC3)nc(-c3cccc(Cl)c3)n2)nc1` [Example 211, Ethyl 2-(6-((2-(3-chlorophenyl)-6-cyclopropylpyrimidin-4-yl)amino)pyridin-3-yl)acetate], the IC50 (PDE4D7 without asterisk) was more than 1000 nM. Still for that read-out and setting: the same measure for `C[C@@H](O)Cc1ccc(Nc2nc(-c3cccc(Cl)c3)nc3c2CCC3)cc1` [Example 172, (R)-1-(4-((2-(3-Chlorophenyl)-6,7-dihydro-5H-cyclopenta[d]pyrimidin-4-yl)amino)phenyl)propan-2-ol]: more than 1000 nM; for `O=C(O)Cc1ccc(Oc2nc(-c3cccc(Cl)c3)nc(C3CC3)n2)cc1` [Example 43, 2-(4-((4-(3-chlorophenyl)-6-cyclopropyl-1,3,5-triazin-2-yl)oxy)phenyl)acetic acid]: more than 1000 nM; for `O=S1(=O)CCCc2nc(-c3ccccc3)nc(Nc3ccc(CCO)cc3)c21` [Example 268, 4-((4-(2-hydroxyethyl)phenyl)amino)-2-phenyl-7,8-dihydro-6H-thiopyrano[3,2-d]pyrimidine 5,5-dioxide]: less than 1000 nM.

For `COC(=O)Cc1ccc(Cc2cc(C(F)(F)F)nc(-c3cccc(Cl)c3)n2)cc1` [Example 203, Methyl 2-(4-((2-(3-chlorophenyl)-6-(trifluoromethyl)pyrimidin-4-yl)methyl)phenyl)acetate], the IC50 (PDE4D7 without asterisk) was more than 1000 nM.

As to `OB1OCc2cc(Nc3nc(-c4ccc(Cl)cc4)nc4c3CCC4)ccc21` [Example 295, 2-(4-Chlorophenyl)-N-(1-hydroxy-3H-2,1-benzoxaborol-5-yl)-6,7-dihydro-5H-cyclopenta[d]pyrimidin-4-amine], where the note is “PDE4D7 without asterisk”, the IC50 was more than 1000 nM. Same read-out and setting: the same measure for `NC(=O)Cc1ccc(Nc2nc(OC3CCCC3)nc3c2CCC3)cc1` [Example 232, 2-(4-((2-(Cyclopentyloxy)-6,7-dihydro-5H-cyclopenta[d]pyrimidin-4-yl)amino)phenyl)acetamide]: more than 1000 nM. Still for that read-out and setting: the same measure for `CCc1cc(Cc2ccc(Cn3cc(Cl)cn3)cc2)nc(-c2cccc(Cl)c2)n1` [Example 190, 4-(4-((4-Chloro-1H-pyrazol-1-yl)methyl)benzyl)-2-(3-chlorophenyl)-6-ethylpyrimidine]: less than 1000 nM; for `COC(=O)c1ccc(Nc2cc(-c3cccc(Cl)c3)nc3c2CCC3)cc1` [Example 87, Methyl 4-((2-(3-chlorophenyl)-6,7-dihydro-5H-cyclopenta[b]pyridin-4-yl)amino)benzoatehydrochloride]: more than 1000 nM. As for `C[C@@H]1CN(c2cc(Nc3ccc(CC(N)=O)cc3)c3c(n2)CCC3)CCN1` [Example 255, (R)-2-(4-((2-(3-Methylpiperazin-1-yl)-6,7-dihydro-5H-cyclopenta[b]pyridin-4-yl)amino)phenyl)acetamide hydrochloride], the IC50 was more than 1000 nM. Turning to `CN(C)CCc1ccc(Nc2nc(-c3cccc(Cl)c3)nc3c2CCC3)cc1` [Example 169, 2-(3-Chlorophenyl)-N-(4-(2-(dimethylamino)ethyl)phenyl)-6,7-dihydro-5H-cyclopenta[d]pyrimidin-4-amine hydrochloride], the IC50 (PDE4D7 without asterisk) is more than 1000 nM. Same read-out and setting: the same measure for `NC(=O)Cc1ccc(Nc2nc(-c3cccc(Cl)c3)nc3c2CCC3)cc1` [Example 21, 2-[4-[[2-(3-chlorophenyl)-6,7-dihydro-5H-cyclopenta[d]pyrimidin-4-yl]amino]phenyl]acetamide]: more than 1000 nM; for `NC(=O)Cc1ccc(Nc2cc(-c3cc(F)cc(Cl)c3)nc3c2CCC3)cc1` [Example 152, 2-(4-((2-(3-Chloro-5-fluorophenyl)-6,7-dihydro-5H-cyclopenta[b]pyridin-4-yl)amino)phenyl)acetamide hydrochloride]: more than 1000 nM.
